Assay results: patent US5504190A, “Equimolar multiple oligomer mixtures, especially oligopeptide mixtures” (priority 1994, dated 1996)
≈ marks a conversion by molar mass, not a printed value.

tested on: Escherichia coli (ATCC 25922); assay: antimicrobial assay, growth inhibition of E. coli (OD 620 nm); format: cell-based; conditions: Tables 1 and 2
Protocol: (§1) Escherichia coli (ATCC 25922) was used as Gram-negative (-) and Staphylococcus aureus (ATCC 29213) as Gram-positive (+) bacteria. Bacteria were grown overnight (about 18 hours) at 37° C. in Mueller-Hinton (MH) broth. This culture was reinoculated and incubated at 37° C. to reach the exponential phase of bacteria growth; i.e., a final bacterial suspension containing about 10^5 to 5×10^5 colony-forming units (CFU)/ml. The concentration of cells was established by plating 100 μl of different dilutions of the culture solution (e.g., 10^-2, 10^-3 and 10^-4) onto solid agar plates. Following an overnight (about 18 hours) incubation at 37° C., the CFU thus formed were counted on each agar plate.
(§2) 96-Well tissue culture plates were utilized, with eight wells per plate containing only medium as control blanks, whereas eight other wells contained medium plus cells as a positive growth control. These controls were used to detect possible medium contamination and to provide a measure of uninhibited growth of the microorganisms.
(§3) For initial screening studies, oligopeptide sets were added to the bacterial suspension to reach a final concentration of 1 mg/ml.
(§4) The plates were incubated overnight (about 18 hours) at 37° C., and the optical density (OD) determined at 620 nm after different times of incubation.

Row | Compound | IC-50 [µg/mL] | MIC [µg/mL]
1 | Ac-RRWWMC-NH2 [RRWWMC] | 12 | 31 to 62
2 | Ac-RRWWMY-NH2 [RRWWMY] | 15 | 16 to 32
3 | Ac-RRWWML-NH2 [RRWWML] | 15 | 16 to 32
4 | Ac-RRWWMM-NH2 [RRWWMM] | 18 | 20 to 32
5 | Ac-FRWLLV-NH2 [FRWLLV] | 24 | 40 to 80
6 | Ac-FRWWHH-NH2 [FRWWHH] | 31 | 34 to 62
7 | Ac-RRWWMK-NH2 [RRWWMK] | 14 | 16 to 32

tested on: Staphylococcus aureus (ATCC 29213); assay: microbe, parasite or virus in culture; conditions: 7-mer studies, Tables 5 and 6 and parent 6-mer
Protocol: as §1, §2, §3, §4

Row | Compound | IC-50 [µg/mL] | MIC [µg/mL]
8 | Ac-RRWWRFY-NH2 [RRWWRFY] | 7.6 | 8 to 16
9 | Ac-RRWWRFI-NH2 [RRWWRFI] | 6.9 | 8 to 16
10 | Ac-RRWWRFV-NH2 [RRWWRFV] | 7.9 | 8 to 16
11 | Ac-LRRWWRF-NH2 [LRRWWRF] | 6.1 | 8 to 16
12 | Ac-RRWWRFL-NH2 [RRWWRFL] | 5.9 | 8 to 16
13 | Ac-RRWWRFC-NH2 [RRWWRFC] | 6.2 | 8 to 16
14 | Ac-RRRWWRF-NH2 [RRRWWRF] | 8 | 8 to 16
15 | Ac-CRRWWRF-NH2 [CRRWWRF] | 6.3 | 8 to 16
16 | Ac-RRWWRF-NH2 [RRWWRF, Ac-Arg-Arg-Trp-Trp-Arg-PheNH2] | 8.7 | –
17 | Ac-FRRWWRF-NH2 [FRRWWRF] | 5.9 | 8 to 16

same assay, conditions: ATCC 29213, 18 h

Row | Compound | MIC [µg/mL]
18 | Ac-RRWWCR-NH2 [RRWWCR, Ac-Arg-Arg-Trp-Trp-Cys-Arg-NH2] | 3.906
19 | Ac-RRWWRF-NH2 [RRWWRF, Ac-Arg-Arg-Trp-Trp-Arg-PheNH2] | 8 to 16

same assay, conditions: Staphylococcus aureus, ATCC29213

Row | Compound | MIC [µg/mL]
20 | CC[C@H]1OC(=O)[C@H](C)[C@@H](O[C@H]2C[C@@](C)(OC)[C@@H](O)[C@H](C)O2)[C@H](C)[C@@H](O[C@@H]2O[C@H](C)C[C@H](N(C)C)[C@H]2O)[C@](C)(O)C[C@@H](C)C(=O)[C@H](C)[C@@H](O)[C@]1(C)O [Erythromycin, reference compound] | 0.5 (≈ 0.681 µM)
21 | CN(C)[C@@H]1C(O)=C(C(N)=O)C(=O)[C@@]2(O)C(O)=C3C(=O)c4c(O)cccc4[C@@](C)(O)[C@H]3C[C@@H]12 [Tetracycline, reference compound] | 0.5 (≈ 1.13 µM)
22 | CC1(C)S[C@@H]2[C@H](NC(=O)[C@H](N)c3ccccc3)C(=O)N2[C@H]1C(=O)O [Ampicillin, reference compound] | 4 (≈ 11.4 µM)

same assay, conditions: Table 7, separate study

Row | Compound | MIC [µg/mL]
23 | Bacitracin A [reference compound] | 16
24 | CC1(C)S[C@@H]2[C@H](NC(=O)Cc3ccccc3)C(=O)N2[C@H]1C(=O)O [Penicillin G, reference compound] | 32 (≈ 95.7 µM)
25 | Gentamicin C [reference compound] | 0.5
26 | Neomycin [reference compound] | 1

same assay, conditions: Tables 3 and 4

Row | Compound | IC-50 [µg/mL] | MIC [µg/mL]
27 | Ac-RRWWRC-NH2 [RRWWRC] | 8.2 | 10 to 19
28 | Ac-RRWWRA-NH2 [RRWWRA] | 14 | 18 to 36
29 | Ac-RRWWRL-NH2 [RRWWRL] | 12 | 13 to 26
30 | Ac-RRWWCS-NH2 [RRWWCS] | 5.9 | 7 to 14
31 | Ac-FRWLLW-NH2 [FRWLLW] | 14 | 12 to 24
32 | Ac-FRWWHI-NH2 [FRWWHI] | 21 | 31 to 62
33 | Ac-FRWLLL-NH2 [FRWLLL] | 18 | 16 to 31
34 | Ac-RRWWCT-NH2 [RRWWCT] | 7.9 | 4.9 to 10
35 | Ac-FRWLLC-NH2 [FRWLLC] | 15 | 13 to 26
36 | Ac-RRWWCV-NH2 [RRWWCV] | 4.9 | 3.8 to 7.7
37 | Ac-RRWWRI-NH2 [RRWWRI] | 12 | 12 to 23
38 | Ac-RRWWRF-NH2 [RRWWRF, Ac-Arg-Arg-Trp-Trp-Arg-PheNH2] | 5.5 | 6 to 9
